Experimental data: PMC7473772 (eLife, 2020)
Numbering of substitutions follows the chain as printed. Several values for one entry are separate records, joined by “and”; a condition that tells them apart may be missing. Identical values can stand only once.

Columns and labels:
[1] = molecular target: T1, tbaqp1-2-3 null cells expressing TbAQP2 WT or Trp/Met mutants (Trypanosoma brucei brucei, UniProt Q6ZXT3, L118M); assay type: cell-based; settings: AQP2 mutant L118M
T1 sequence (Q6ZXT3 1-312 L118M): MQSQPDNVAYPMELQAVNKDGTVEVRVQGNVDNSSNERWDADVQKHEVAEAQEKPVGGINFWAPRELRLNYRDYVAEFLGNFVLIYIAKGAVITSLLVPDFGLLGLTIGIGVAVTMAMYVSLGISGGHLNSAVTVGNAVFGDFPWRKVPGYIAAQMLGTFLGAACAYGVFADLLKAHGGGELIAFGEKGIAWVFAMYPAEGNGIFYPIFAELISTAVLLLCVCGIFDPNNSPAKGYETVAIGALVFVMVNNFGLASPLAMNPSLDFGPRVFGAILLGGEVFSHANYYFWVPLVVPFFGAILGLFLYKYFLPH

[2] = molecular target: T2, tbaqp1-2-3 null cells expressing TbAQP2 WT or Trp/Met mutants (Trypanosoma brucei brucei, UniProt Q6ZXT3, L84M); assay type: cell-based; settings: AQP2 mutant L84M
T2 sequence (Q6ZXT3 1-312 L84M): T1 sequence (Q6ZXT3 1-312 L118M) with L84M, M118L

[3] = tested on: tbaqp1-2-3 null cells expressing TbAQP2 WT or Trp/Met mutants; assay type: cell-based, Trypanosoma brucei brucei; settings: triple KO AQP1-3
[4] = molecular target: tbaqp1-2-3 null cells expressing TbAQP2 WT or Trp/Met mutants (Trypanosoma brucei brucei, UniProt Q6ZXT3); assay type: cell-based; settings: + AQP2 WT
[5] = molecular target: T3, tbaqp1-2-3 null cells expressing TbAQP2 WT or Trp/Met mutants (Trypanosoma brucei brucei, UniProt Q6ZXT3, L118W); assay type: cell-based; settings: AQP2 mutant L118W
T3 sequence (Q6ZXT3 1-312 L118W): T1 sequence (Q6ZXT3 1-312 L118M) with M118W

[6] = molecular target: T4, tbaqp1-2-3 null cells expressing TbAQP2 WT or Trp/Met mutants (Trypanosoma brucei brucei, UniProt Q6ZXT3, L218M); assay type: cell-based; settings: AQP2 mutant L218M
T4 sequence (Q6ZXT3 1-312 L218M): T1 sequence (Q6ZXT3 1-312 L118M) with M118L, L218M

[7] = molecular target: T5, tbaqp1-2-3 null cells expressing TbAQP2 WT or Trp/Met mutants (Trypanosoma brucei brucei, UniProt Q6ZXT3, L84W); assay type: cell-based; settings: AQP2 mutant L84W
T5 sequence (Q6ZXT3 1-312 L84W): T1 sequence (Q6ZXT3 1-312 L118M) with L84W, M118L

[8] = molecular target: T6, tbaqp1-2-3 null cells expressing TbAQP2 WT or Trp/Met mutants (Trypanosoma brucei brucei, UniProt Q6ZXT3, L218W); assay type: cell-based; settings: AQP2 mutant L218W
T6 sequence (Q6ZXT3 1-312 L218W): T1 sequence (Q6ZXT3 1-312 L118M) with M118L, L218W

[9] = molecular target: T7, tbaqp1-2-3 null cells expressing TbAQP2 WT or Trp/Met mutants (Trypanosoma brucei brucei, UniProt Q6ZXT3, L118W/L84W); assay type: cell-based; settings: AQP2 mutant L84W/L118W
T7 sequence (Q6ZXT3 1-312 L84W/L118W): T1 sequence (Q6ZXT3 1-312 L118M) with L84W, M118W

## OCC(O)CO [Glycerol]
[1]
  Glycerol uptake, percent of + AQP2 WT, single replicates: 62.48% of + AQP2 WT and 49.85% of + AQP2 WT
[1]; exp HK1560
  Glycerol uptake, single replicates: 11510.33 dpm and 10303.00 dpm
[1]; n=2
  Glycerol uptake, percent of + AQP2 WT, AVG: 56.2% of + AQP2 WT
[2]
  Glycerol uptake, percent of + AQP2 WT, single replicates: 71.54% of + AQP2 WT and 78.57% of + AQP2 WT and 85.30% of + AQP2 WT
[2]; exp HK1560
  Glycerol uptake, single replicates: 13178.67 dpm and 16239.50 dpm and 17336.50 dpm
[2]; n=3
  Glycerol uptake, AVG: 15585 dpm
  Glycerol uptake, percent of + AQP2 WT, AVG: 78.5% of + AQP2 WT
[3]
  Glycerol uptake, percent of + AQP2 WT, single replicates: 18.67% of + AQP2 WT and 17.85% of + AQP2 WT and 11.96% of + AQP2 WT
[3]; exp HK1560
  Glycerol uptake, single replicates: 3439.75 dpm and 3689.75 dpm and 2430 dpm
[3]; n=3
  Glycerol uptake, AVG: 3187 dpm
  Glycerol uptake, percent of + AQP2 WT, AVG: 16.2% of + AQP2 WT
[4]
  Glycerol uptake, percent of + AQP2 WT, single replicates: 100.00% of + AQP2 WT
[4]; n=3
  Glycerol uptake, percent of + AQP2 WT, AVG: 100.0% of + AQP2 WT
[5]
  Glycerol uptake, percent of + AQP2 WT, single replicates: 36.39% of + AQP2 WT and 32.80% of + AQP2 WT and 32.53% of + AQP2 WT
[5]; exp HK1560
  Glycerol uptake, single replicates: 6704.25 dpm and 6779.50 dpm and 6612.25 dpm
[5]; n=3
  Glycerol uptake, AVG: 6699 dpm
  Glycerol uptake, percent of + AQP2 WT, AVG: 33.9% of + AQP2 WT
[6]
  Glycerol uptake, percent of + AQP2 WT, single replicates: 85.78% of + AQP2 WT and 59.96% of + AQP2 WT and 82.90% of + AQP2 WT
[6]; exp HK1560
  Glycerol uptake, single replicates: 15802.25 dpm and 12393.00 dpm and 16849.00 dpm
[6]; n=3
  Glycerol uptake, AVG: 15015 dpm
  Glycerol uptake, percent of + AQP2 WT, AVG: 76.2% of + AQP2 WT
[7]
  Glycerol uptake, percent of + AQP2 WT, single replicates: 55.50% of + AQP2 WT and 63.99% of + AQP2 WT and 46.33% of + AQP2 WT
[7]; exp HK1560
  Glycerol uptake, single replicates: 10224.8 dpm and 13226.00 dpm and 9416.00 dpm
[7]; n=3
  Glycerol uptake, AVG: 10956 dpm
  Glycerol uptake, percent of + AQP2 WT, AVG: 55.3% of + AQP2 WT
[8]
  Glycerol uptake, percent of + AQP2 WT, single replicates: 75.79% of + AQP2 WT and 58.22% of + AQP2 WT and 78.07% of + AQP2 WT
[8]; exp HK1560
  Glycerol uptake, single replicates: 13962.75 dpm and 12032 dpm and 15866.50 dpm
[8]; n=3
  Glycerol uptake, AVG: 13954 dpm
  Glycerol uptake, percent of + AQP2 WT, AVG: 70.7% of + AQP2 WT
[9]
  Glycerol uptake, percent of + AQP2 WT, single replicates: 26.06% of + AQP2 WT and 22.48% of + AQP2 WT and 15.25% of + AQP2 WT
[9]; exp HK1560
  Glycerol uptake, single replicates: 4801.50 dpm and 4646.75 dpm and 3099.50 dpm
[9]; n=3
  Glycerol uptake, AVG: 4183 dpm
  Glycerol uptake, percent of + AQP2 WT, AVG: 21.3% of + AQP2 WT
